{"source": "patent US4160097A", "about": "“1-(2-Phenylureylene)imidazoles” (Westwind Pharmaceuticals, Inc., priority 1977, dated 1979)", "data": [{"test_system": "Trichophyton ajelloi", "assay": "Antifungal activity, agar dilution method", "format": "cell-based", "settings": "Arthroderma uncinatum, T. ajelloi, read-out: Parts Per Million Inhibitions of T. ajelloi", "experimental": "(§1) various compounds of this invention display antifungal and anti-yeast activity.\n(§2) In Table IX below are listed the antifungal activity of a number of compounds encompassed in the present invention. These were determined by the agar dilution method as described in Chapters 2 and 3 of Methods in Microbiology, Vol. 7B, edited by J. R. Norris and D. W. Ribbons, Academic Press, New York, 1972.", "units": {"MIC": "µg/mL"}, "values": [{"smiles": "COc1ccc(-c2nc3ccccc3n3ccnc23)cc1", "note": "[Compound 138]", "MIC": 100}, {"smiles": "Brc1ccccc1-c1nc2ccccc2n2ccnc12", "note": "[Compound 145]", "MIC": 100}, {"smiles": "COc1cccc(-c2nc3ccccc3n3ccnc23)c1", "note": "[Compound 159]", "MIC": 100}, {"smiles": "c1ccc2c(-c3nc4ccccc4n4ccnc34)cccc2c1", "note": "[Compound 160]", "MIC": 100}, {"smiles": "CC(=O)Oc1ccc(-c2nc3ccccc3n3ccnc23)cc1", "note": "[Compound 163]", "MIC": 100}, {"smiles": "CCCC(=O)Oc1ccc(-c2nc3ccccc3n3ccnc23)cc1", "note": "[Compound 164]", "MIC": 100}, {"smiles": "CCCCCCCCCC(=O)Oc1ccc(-c2nc3ccccc3n3ccnc23)cc1", "note": "[Compound 165]", "MIC": 100}, {"smiles": "c1ccc2c(c1)nc(NC1CCCCC1)c1nccn12", "note": "[Compound 167]", "MIC": 100}, {"smiles": "CCCCNc1nc2ccccc2n2ccnc12", "note": "[Compound 168]", "MIC": 100}, {"smiles": "CCCNc1nc2ccccc2n2ccnc12", "note": "[Compound 169]", "MIC": 100}, {"smiles": "Fc1ccccc1-c1nc2ccccc2n2ccnc12", "note": "[Compound 173]", "MIC": 100}, {"smiles": "Clc1cccc(Nc2nc3ccccc3n3ccnc23)c1", "note": "[Compound 179]", "MIC": 100}, {"smiles": "COc1ccccc1Nc1nc2ccccc2n2ccnc12", "note": "[Compound 184]", "MIC": 100}, {"smiles": "COc1cccc(Nc2nc3ccccc3n3ccnc23)c1", "note": "[Compound 185]", "MIC": 100}, {"smiles": "COc1ccc(Nc2nc3ccccc3n3ccnc23)cc1", "note": "[Compound 186]", "MIC": 100}, {"smiles": "O=[N+]([O-])c1ccccc1Nc1nc2ccccc2n2ccnc12", "note": "[Compound 187]", "MIC": 100}, {"smiles": "O=[N+]([O-])c1ccc(Nc2nc3ccccc3n3ccnc23)cc1", "note": "[Compound 189]", "MIC": 100}]}, {"test_system": "Trichophyton rubrum", "assay": "Antifungal activity, agar dilution method", "format": "cell-based, Trichophyton rubrum (ATCC No. 10218 and 14001)", "settings": "T. rubrum, read-out: Parts Per Million Inhibitions of T. rubrum", "experimental": "as §1, §2", "units": {"MIC": "µg/mL"}, "values": [{"smiles": "CCCCCCCCC(=O)Nc1ccccc1-n1ccnc1", "note": "[Compound 9]", "MIC": 16}, {"smiles": "C=CCCCCCCCCC(=O)Nc1ccccc1-n1ccnc1", "note": "[Compound 16]", "MIC": 2}, {"smiles": "CCCCCCCCCc1nc2ccccc2n2ccnc12", "note": "[Compound 118]", "MIC": 4}, {"smiles": "C(=Cc1nc2ccccc2n2ccnc12)c1ccccc1", "note": "[Compound 127]", "MIC": 16}, {"smiles": "Brc1ccccc1-c1nc2ccccc2n2ccnc12", "note": "[Compound 145]", "MIC": 100}, {"smiles": "O=[N+]([O-])c1ccc(-c2nc3ccccc3n3ccnc23)cc1", "note": "[Compound 151]", "MIC": 1}, {"smiles": "COc1cccc(-c2nc3ccccc3n3ccnc23)c1", "note": "[Compound 159]", "MIC": 100}, {"smiles": "c1ccc2c(-c3nc4ccccc4n4ccnc34)cccc2c1", "note": "[Compound 160]", "MIC": 100}, {"smiles": "CC(=O)Oc1ccc(-c2nc3ccccc3n3ccnc23)cc1", "note": "[Compound 163]", "MIC": 100}, {"smiles": "CCCC(=O)Oc1ccc(-c2nc3ccccc3n3ccnc23)cc1", "note": "[Compound 164]", "MIC": 100}, {"smiles": "CCCCCCCCCC(=O)Oc1ccc(-c2nc3ccccc3n3ccnc23)cc1", "note": "[Compound 165]", "MIC": 100}, {"smiles": "c1ccc2c(c1)nc(NC1CCCCC1)c1nccn12", "note": "[Compound 167]", "MIC": 100}, {"smiles": "CCCCNc1nc2ccccc2n2ccnc12", "note": "[Compound 168]", "MIC": 100}, {"smiles": "CCCNc1nc2ccccc2n2ccnc12", "note": "[Compound 169]", "MIC": 100}, {"smiles": "Fc1ccccc1-c1nc2ccccc2n2ccnc12", "note": "[Compound 173]", "MIC": 100}, {"smiles": "Clc1cccc(Nc2nc3ccccc3n3ccnc23)c1", "note": "[Compound 179]", "MIC": 100}, {"smiles": "Fc1ccc(Nc2nc3ccccc3n3ccnc23)cc1", "note": "[Compound 182]", "MIC": 100}, {"smiles": "COc1ccccc1Nc1nc2ccccc2n2ccnc12", "note": "[Compound 184]", "MIC": 100}, {"smiles": "COc1cccc(Nc2nc3ccccc3n3ccnc23)c1", "note": "[Compound 185]", "MIC": 100}, {"smiles": "COc1ccc(Nc2nc3ccccc3n3ccnc23)cc1", "note": "[Compound 186]", "MIC": 100}, {"smiles": "O=[N+]([O-])c1ccccc1Nc1nc2ccccc2n2ccnc12", "note": "[Compound 187]", "MIC": 100}, {"smiles": "O=[N+]([O-])c1ccc(Nc2nc3ccccc3n3ccnc23)cc1", "note": "[Compound 189]", "MIC": 100}]}, {"test_system": "humeral or antibody response", "assay": "hemolysin test in mice", "format": "in vivo", "settings": "Mus musculus, sc, dose reducing antibody activity by 50% vs control, read-out: HL(ED50)", "units": {"ED50": "mg/kg"}, "values": [{"smiles": "CCCCCCCCCc1nc2ccccc2n2ccnc12", "note": "[Compound 118]", "ED50": "> 50"}, {"smiles": "C(=Cc1nc2ccccc2n2ccnc12)c1ccccc1", "note": "[Compound 127]", "ED50": "> 50"}, {"smiles": "COc1ccc(-c2nc3ccccc3n3ccnc23)cc1", "note": "[Compound 138]", "ED50": 0.72}, {"smiles": "O=[N+]([O-])c1ccc(-c2nc3ccccc3n3ccnc23)cc1", "note": "[Compound 151]", "ED50": 0.3}, {"smiles": "COc1cccc(-c2nc3ccccc3n3ccnc23)c1", "note": "[Compound 159]", "ED50": 3}, {"smiles": "CCCNc1nc2ccccc2n2ccnc12", "note": "[Compound 169]", "ED50": 46}, {"smiles": "Fc1ccc(Nc2nc3ccccc3n3ccnc23)cc1", "note": "[Compound 182]", "ED50": 1.1}]}, {"test_system": "Trichophyton mentagrophytes", "assay": "Antifungal activity, agar dilution method", "format": "cell-based, Trichophyton mentagrophytes (ATCC No. 8757 and 9129)", "settings": "T. mentagrophytes, read-out: Parts Per Million Inhibitions of T. mentagrophytes", "experimental": "as §1, §2", "units": {"MIC": "µg/mL"}, "values": [{"smiles": "CCCCCCCCC(=O)Nc1ccccc1-n1ccnc1", "note": "[Compound 9]", "MIC": 16}, {"smiles": "C=CCCCCCCCCC(=O)Nc1ccccc1-n1ccnc1", "note": "[Compound 16]", "MIC": 4}, {"smiles": "CCCCCCCCCc1nc2ccccc2n2ccnc12", "note": "[Compound 118]", "MIC": 256}, {"smiles": "C(=Cc1nc2ccccc2n2ccnc12)c1ccccc1", "note": "[Compound 127]", "MIC": 16}, {"smiles": "COc1ccc(-c2nc3ccccc3n3ccnc23)cc1", "note": "[Compound 138]", "MIC": 100}, {"smiles": "Brc1ccccc1-c1nc2ccccc2n2ccnc12", "note": "[Compound 145]", "MIC": 100}, {"smiles": "COc1cccc(-c2nc3ccccc3n3ccnc23)c1", "note": "[Compound 159]", "MIC": 100}, {"smiles": "c1ccc2c(-c3nc4ccccc4n4ccnc34)cccc2c1", "note": "[Compound 160]", "MIC": 100}, {"smiles": "CC(=O)Oc1ccc(-c2nc3ccccc3n3ccnc23)cc1", "note": "[Compound 163]", "MIC": 100}, {"smiles": "CCCC(=O)Oc1ccc(-c2nc3ccccc3n3ccnc23)cc1", "note": "[Compound 164]", "MIC": 100}, {"smiles": "CCCCCCCCCC(=O)Oc1ccc(-c2nc3ccccc3n3ccnc23)cc1", "note": "[Compound 165]", "MIC": 100}, {"smiles": "c1ccc2c(c1)nc(NC1CCCCC1)c1nccn12", "note": "[Compound 167]", "MIC": 100}, {"smiles": "CCCCNc1nc2ccccc2n2ccnc12", "note": "[Compound 168]", "MIC": 100}, {"smiles": "CCCNc1nc2ccccc2n2ccnc12", "note": "[Compound 169]", "MIC": 100}, {"smiles": "Fc1ccccc1-c1nc2ccccc2n2ccnc12", "note": "[Compound 173]", "MIC": 100}, {"smiles": "Clc1cccc(Nc2nc3ccccc3n3ccnc23)c1", "note": "[Compound 179]", "MIC": 100}, {"smiles": "COc1ccccc1Nc1nc2ccccc2n2ccnc12", "note": "[Compound 184]", "MIC": 100}, {"smiles": "COc1cccc(Nc2nc3ccccc3n3ccnc23)c1", "note": "[Compound 185]", "MIC": 100}, {"smiles": "COc1ccc(Nc2nc3ccccc3n3ccnc23)cc1", "note": "[Compound 186]", "MIC": 100}]}, {"test_system": "cell-mediated immune response to the antigen, Mycobacterium tuberculosis H37Ra", "assay": "delayed hypersensitivity test", "format": "in vivo, mouse", "settings": "Mus musculus, sc, read-out: D.H.S. (ED60)", "experimental": "(§3) The immunosuppressant activities of the compounds of this invention were determined via the hemolysin test in mice and by the delayed hypersensitivity test. The hemolysin test used is that described in Methods in Immunology, edited by D. H. Campbell et al, W. A. Benjamin, New York 1963 pages 172-175, and measures humeral or antibody response. The delayed hypersensitivity test measures the effect of a test compound on the ability of a subject mouse to mount a cell-mediated immune response to the antigen, Mycobacterium tuberculosis H37Ra. The mouse is sensitized to the antigen by subcutaneous administration in the base of the tail. The development of the delayed hypersensitivity response may be measured at any time beginning six days after sensitization but is usually done on the ninth day as follows: The right hind paw is injected with purified protein derivative (tuberculin) while the left hind paw (control) receives physiological saline. Both paw volumes are measured after twenty-four hours and significant increase in the volume of the right hand paw is taken as a measure of an effective delayed hypersensitivity response. All compounds were administered by the subcutaneous route.\n(§4) The D.H.S. (ED60) mg./kg. s.c. value appearing in column 3 is an expression of the effectiveness of the drug in reducing the edema that accompanies the cell-mediated immune response. It is a measure of the number of milligrams per kilogram of body weight of the drug administered subcutaneously which is required to reduce the edema of the cell-mediated immune response by 60% when compared to the control.", "units": {"ED60": "mg/kg"}, "values": [{"smiles": "CCCNc1nc2ccccc2n2ccnc12", "note": "[Compound 169]", "ED60": "> 50"}]}, {"test_system": "cell-mediated immune response to the antigen, Mycobacterium tuberculosis H37Ra", "assay": "delayed hypersensitivity test", "format": "in vivo, mouse", "settings": "Mus musculus, sc; mice; dose reducing edema of cell-mediated immune response by 60% vs control; read-out: D.H.S. (ED60)", "experimental": "as §3, §4", "units": {"ED60": "mg/kg"}, "values": [{"smiles": "CCCCCCCCCc1nc2ccccc2n2ccnc12", "note": "[Compound 118]", "ED60": 43}, {"smiles": "C(=Cc1nc2ccccc2n2ccnc12)c1ccccc1", "note": "[Compound 127]", "ED60": 36}, {"smiles": "COc1ccc(-c2nc3ccccc3n3ccnc23)cc1", "note": "[Compound 138]", "ED60": 27}, {"smiles": "O=[N+]([O-])c1ccc(-c2nc3ccccc3n3ccnc23)cc1", "note": "[Compound 151]", "ED60": 1.52}, {"smiles": "COc1cccc(-c2nc3ccccc3n3ccnc23)c1", "note": "[Compound 159]", "ED60": 27}, {"smiles": "Fc1ccccc1-c1nc2ccccc2n2ccnc12", "note": "[Compound 173]", "ED60": 40}]}]}
